Results from patent US20240342138A1, “MICROTUBULE TARGETING AGENTS” (BPGbio, Inc., priority 2023, published 2024).

Columns and labels:
[1] = system: CTG-1520 PDX tumors; assay: CTG-1520 PDX tumor growth in nude mice; type: in vivo
Description: FIG. 10A-10C show potency of Compound 1 in a patient-derived organoid model of taxane resistance. A) Overview of study design. B) CTG-1520 was implanted subcutaneously in nude mice and tumors were allowed to grow to a volume of 210 mm^3 followed by randomization of animals into three (3) groups (vehicle control, 75 mg/kg, 150 mg/kg Compound 1) with 12 animals per group. A Compound 1 solid dispersion was prepared prior to each dosing and administered by oral gavage two times a day (BID). Mean tumor volume of each group over time and the growth of tumor in each individual animal was graphed. For each individual animal of vehicle group tumor growth inhibition (TGI) % was calculated based on the tumor growth inhibition of individual tumor at each given day of the study compared to the average of the group for that given day of the study. P-values were calculated using two-tailed distribution and two-sample equal variance (homoscedastic) for each group treated with Compound 1 for each given day of the study in reference to vehicle control. ns p>0.05; *p≤0.05; **p≤0.01. C) Body weight of each individual animal was measured on days 0, 3, 6, 10, 13, and 17 and graphed using Graphpad Prism.
In a next step, the ability of Compound 1 to inhibit the growth of CTG-1520 PDX in nude mice was assessed. CTG-1520 was implanted subcutaneously in nude mice and tumors were allowed to grow to a volume of 210 mm^3 followed by randomization of animals into three (3) groups (vehicle control; 75 mg/kg, and 150 mg/kg Compound 1) with 12 animals per group (see FIG. 10A). A Compound 1 solid dispersion was administered by oral gavage two times a day (BID). All animals, except one (1) from the vehicle control group, survived through the study (17 days). One (1) animal from the vehicle control group reached the endpoint of 2000 mm^3 prior to day 17 and was eliminated from all calculations.

[2] = system: HCT116 cells; assay: Kinetochore assembly, immunocytochemistry / confocal microscopy; type: cell-based; settings: 300 nM, 24h
Description: The HCT116 cells were cultured using DMEM media supplemented with 10% FBS and 1% Pen/Strep. Cells were maintained to a maximum of 80% confluency before being split and plated into coverslips in 12-well plates.
1. HCT116 cells were plated on Poly-D-Lysine German Glass Coverslips (#1.5, 18 mm)
2. After 24h cells were treated with 300 nM of Compound 1 and Nocodozole.
3. After 24h cells were washed briefly with PBS and fixed with warm 4% paraformaldehyde at room temperature for 10 min.
4. Cells were permeabilized and blocked in 10% goat serum, 0.5% Triton-X in PBS for 1 hr.
5. Cells were incubated with Primary antibodies overnight.
6. Washed 3× with PBS for 10 min
7. Incubated with secondary antibodies at room temperature for 1 hr.
8. Washed 3× with PBS for 10 min
9. Coverslips were mounted with ProLong Gold Anti-Fade Mount with DAPI and imaged with Olympus FV1200 MPE Microscope.
10. Images were collected with identical confocal settings for all of the samples and Z-stacked images were projected with maximal projection mode using Fluor View Software.
1. Selected cells of interest using the drawing/selection tools (i.e. rectangle, circle, polygon or freeform).
2. From the Analyze menu selected “Measure.”
3. Selected region with no fluorescence to be my background.
4. Repeated these steps for other cells in the field of view
5. Used the CTCF formula to calculate Mad1 expression:
CTCF=Integrated Density−(Area of selected cell×Mean fluorescence of background readings)
Micrographs were imaged using Olympus FV1200 MPE confocal microscope at 63× oil. White arrows indicate dividing cells. Representative images of N=3 biological replicates. Significance in difference of treated HCT116 cells to untreated cells was tested by Student t test (** p<0.01).

[3] = biological target: P-gp (Homo sapiens, UniProt P08183); assay: P-gp substrate status; type: in vitro ADME
Sequence of P-gp (P08183 whole entry): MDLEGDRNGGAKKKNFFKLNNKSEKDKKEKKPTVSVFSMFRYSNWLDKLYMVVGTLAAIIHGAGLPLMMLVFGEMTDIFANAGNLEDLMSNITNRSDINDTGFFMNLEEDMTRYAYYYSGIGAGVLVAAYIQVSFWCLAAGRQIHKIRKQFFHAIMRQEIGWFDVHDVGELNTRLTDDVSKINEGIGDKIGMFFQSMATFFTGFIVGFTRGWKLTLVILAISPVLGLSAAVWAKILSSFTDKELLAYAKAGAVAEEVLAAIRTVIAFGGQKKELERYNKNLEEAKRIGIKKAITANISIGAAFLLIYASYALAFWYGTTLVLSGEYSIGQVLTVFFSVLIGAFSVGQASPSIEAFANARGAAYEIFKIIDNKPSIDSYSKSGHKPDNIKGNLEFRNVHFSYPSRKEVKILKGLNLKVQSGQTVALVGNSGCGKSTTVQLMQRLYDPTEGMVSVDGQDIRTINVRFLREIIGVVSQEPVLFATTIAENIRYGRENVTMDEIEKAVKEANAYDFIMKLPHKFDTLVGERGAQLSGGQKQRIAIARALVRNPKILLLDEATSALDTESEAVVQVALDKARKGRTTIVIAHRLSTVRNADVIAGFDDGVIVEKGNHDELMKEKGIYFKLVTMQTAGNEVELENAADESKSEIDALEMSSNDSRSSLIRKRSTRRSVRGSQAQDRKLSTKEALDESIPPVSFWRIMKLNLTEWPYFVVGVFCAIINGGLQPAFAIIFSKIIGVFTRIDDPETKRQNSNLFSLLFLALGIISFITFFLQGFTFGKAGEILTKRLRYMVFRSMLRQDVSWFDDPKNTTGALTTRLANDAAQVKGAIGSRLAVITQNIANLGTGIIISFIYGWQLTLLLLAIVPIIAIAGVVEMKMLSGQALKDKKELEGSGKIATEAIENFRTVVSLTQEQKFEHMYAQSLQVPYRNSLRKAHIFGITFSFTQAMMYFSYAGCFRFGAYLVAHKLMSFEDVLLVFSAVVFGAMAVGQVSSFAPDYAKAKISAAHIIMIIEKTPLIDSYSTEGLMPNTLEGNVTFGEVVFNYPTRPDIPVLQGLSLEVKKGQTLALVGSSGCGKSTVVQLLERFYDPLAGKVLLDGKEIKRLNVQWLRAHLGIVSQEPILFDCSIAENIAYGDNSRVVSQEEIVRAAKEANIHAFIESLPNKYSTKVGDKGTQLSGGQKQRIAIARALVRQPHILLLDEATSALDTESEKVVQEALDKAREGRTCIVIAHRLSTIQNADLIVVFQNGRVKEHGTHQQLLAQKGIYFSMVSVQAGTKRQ

[4] = system: DU145 tumors; assay: Prostate cancer xenograft model; type: in vivo, nude mice
Description: FIG. 12A-12E show the efficacy of Compound lin a prostate cancer xenograft model (DU145). A) In vitro potency of Compound 1 in DU145 cells as evaluated by ATPlite 1Step™ Perkin Elmer (performed by NTRC Oncolines). B) DU145 cells were implanted subcutaneously in nude mice and tumors were allowed to grow to a volume of 210 mm^3 followed by randomization of animals into three (3) groups (vehicle control, 75 mg/kg, 150 mg/kg Compound 1) with 12 animals per group. A Compound 1 solid dispersion was prepared prior to each dosing and administered by oral gavage two times a day (BID). Mean tumor volume of each group over time and the growth of tumor in each individual animal was graphed. For each individual animal of vehicle group TGI (%) was calculated based on the tumor growth inhibition of individual tumor at each given day of the study compared to the average of the group for that given day of the study. P-values were calculated using two-tailed distribution and two-sample equal variance (homoscedastic) for each group treated with Compound 1 for each given day of the study in reference to vehicle control. NS p>0.05; *p≤0.05; **p≤0.01; ***p p≤0.001; **** p≤0.0001. C) Plasma and tumor tissues from vehicle (n=11), 75 mg/kg (n=12), and 150 mg/kg (n=12) groups were harvested at the end of the study. The concentration of Compound lin the plasma or tumor tissue was plotted as a column plot (Average t SEM) or Scatter Plot with Median. D) Tumor tissues from vehicle (n=12), 75 mg/kg (n=12) and 150 mg/kg (n=12) groups were harvested at the end of the study when each animal was sacrificed. The level of two biomarkers, pHH3 and CCNB1 in each tissue was measured and graphed as the Min-to-Max plot and scatter plot of the level of each biomarker. The line in the scatter plot indicates the group mean. E) Body weight of each individual animal was measured on days 0, 2, 5, 7, 9, 12, 14, 16, 19, 21, 23, and 26 and graphed using Graphpad Prism.
Anti-tumor efficacy of Compound 1 was evaluated against three (3) different preclinical oncology mice models of colorectal cancer, prostate cancer, and lung adenocarcinoma (see Table 5 below). For this purpose, an oral formulation of Compound 1 was used.
DU145 is an epithelial cell carcinoma derived from the metastatic site (brain). DU145 cells were implanted subcutaneously in nude mice and tumors were allowed to grow to an average volume of 106 mm^3 followed by randomization into three (3) groups consisting of vehicle control, 75 mg/kg and 150 mg/kg Compound 1 (12 animals per group). A Compound 1 solid dispersion was administered by oral gavage two times a day (BID). All animals, except one animal from vehicle group, survived throughout the 26 days of the study. Any animal that left the study prior to Day 26 was eliminated from all calculations. The percentage of tumor growth inhibition (TGI %) was calculated for each individual tumor. The mean tumor volume of each group over time and the growth of tumor in each individual animal is plotted below. The percentage of tumor growth inhibition (TGI %) was calculated for each individual animal.

## COc1ccccc1-c1nc(CNC(=O)c2ccccc2OC(F)F)n[nH]1 [Compound 1, 2-(difluoromethoxy)-N-[[5-(2-methoxyphenyl)-1H-1,2,4-triazol-3-yl]methyl]benzamide]
[1]; 75 mg/kg BID oral gavage, 17 days
  Tumor volume relative to vehicle control: reduced tumor volume relative to the vehicle control, but to a lesser extent than the 150 mg/kg dose
[1]; 150 mg/kg BID oral gavage, 17 days
  Tumor growth inhibition: significant tumor growth inhibition
[1]; 75 and 150 mg/kg BID, FIG. 10C
  Body weight: No body weight loss
[2]; FIG. 4A
  Mitotic spindle formation: lack of proper mitotic spindle formation
[2]; FIG. 4B
  Mad1 signal intensity: increase in Mad1 signal intensity
[3]
  P-gp substrate: not a substrate for P-gp
[4]; 75 mg/kg BID oral, day 26
  TGI (%): 22%
[4]; 75 mg/kg to 150 mg/kg, FIG. 12C
  Level of the drug in the plasma and tumor tissue: dose-dependent increase
[4]; 150 mg/kg BID oral (b152 prints 150 mg/g), day 26
  Maximum TGI (%), end of the study: 38%
[4]; 26 days, FIG. 12E
  Body weight: no body weight loss related to the drug
[4]; tumor tissue, FIG. 12D
  Level of biomarkers CCNB1 and pHH3: increase
